Measured values as given in ChEMBL document CHEMBL6182855, “Design and synthesis of phenanthridinone and phenanthridine derivatives and their radiosensitizing activity” (2025).
Calls of active or inactive are those of the source. No cut-off for these calls is given here.

How the values were obtained:
[1] = test system: HCT-116; assay: Cytotoxicity against human HCT-116 cells assessed as cell growth inhibition incubated for 72 hrs by CCK-8 assay; assay type: functional
[2] = target: Tyrosyl-DNA phosphodiesterase 1 (Homo sapiens) (UniProt Q9NUW8); assay: Inhibition of TDP1 (unknown origin) using (5'-FAM-AGGATCTAAAAGACTT-BHQ-3') as substrate at 100 uM by fluorescence assay
Chain of Tyrosyl-DNA phosphodiesterase 1 (Homo sapiens) (Q9NUW8 whole entry): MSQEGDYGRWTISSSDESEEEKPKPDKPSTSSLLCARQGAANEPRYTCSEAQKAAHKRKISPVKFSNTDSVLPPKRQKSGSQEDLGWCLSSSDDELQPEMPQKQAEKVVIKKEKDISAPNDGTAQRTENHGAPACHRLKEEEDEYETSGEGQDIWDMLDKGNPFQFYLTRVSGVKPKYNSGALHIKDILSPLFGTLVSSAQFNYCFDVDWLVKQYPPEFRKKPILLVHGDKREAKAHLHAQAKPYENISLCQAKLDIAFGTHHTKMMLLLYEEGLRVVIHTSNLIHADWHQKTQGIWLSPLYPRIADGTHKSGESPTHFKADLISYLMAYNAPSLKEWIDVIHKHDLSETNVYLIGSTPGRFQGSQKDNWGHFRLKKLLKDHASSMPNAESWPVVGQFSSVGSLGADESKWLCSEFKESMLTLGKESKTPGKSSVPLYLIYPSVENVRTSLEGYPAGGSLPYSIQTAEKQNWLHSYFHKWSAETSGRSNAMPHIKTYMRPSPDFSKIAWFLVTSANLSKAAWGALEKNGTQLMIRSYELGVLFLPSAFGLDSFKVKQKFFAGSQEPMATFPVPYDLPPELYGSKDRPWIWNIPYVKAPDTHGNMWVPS

[3] = test system: HCT-116; assay: Cytotoxicity against human HCT-116 cells assessed as cell killing at 0.5 uM incubated for 72 hrs by CCK-8 assay relative to control; assay type: functional
[4] = test system: HCT-116; assay: Cytotoxicity against human HCT-116 cells assessed as cell survival at 0.5 uM incubated for 72 hrs by CCK-8 assay relative to control; assay type: functional; settings: read-out: Activity
[5] = test system: HCT-116; assay: Radiosensitizing activity in human HCT-116 cells assessed as reduction in cell viability at 0.5 uM co-treated with IR-2 Gy incubated for 72 hrs by CCK-8 assay (reference value: 37%); assay type: functional
[6] = test system: HCT-116; assay: Induction of DNA damage in human HCT-116 cells assessed as increase in gamma-H2AX fluorescence intensity at 10 uM incubated for 6 hrs by DAPI staining based immunofluorescence microscopic analysis; assay type: functional, cell-based
[7] = test system: HCT-116; assay: Induction of apoptosis in human HCT-116 cells assessed as early apoptotic cells at 5 uM incubated for 24 hrs by AnnexinV-FITC/PI staining based flow cytometry (reference value: 1.41%); assay type: functional
[8] = test system: HCT-116; assay: Radiosensitization activity in human HCT-116 cells assessed as cell killing at 0.25 uM incubated for 24 hrs in presence of IR-5 Gy by crystal violet staining based colony formation assay relative to control; assay type: functional
[9] = test system: HCT-116; assay: Induction of ROS generation in human HCT-116 cells at 5 to 10 uM by DCFH-DA staining based ELISA; assay type: functional, cell-based; settings: dose 5-10 µM
[10] = test system: HCT-116; assay: Induction of cell cycle arrest in human HCT-116 cells assessed as accumulation of cells at S phase at 5 uM incubated for 24 hrs in presence of IR-4 Gy by PI staining based flow cytometric analysis (reference value: 13.71%); assay type: functional
[11] = test system: HCT-116; assay: Inhibition of colony formation in human HCT-116 cells at 0.25 uM incubated for 24 hrs by crystal violet staining based colony formation assay relative to control; assay type: functional
[12] = test system: HCT-116; assay: Induction of cell cycle arrest in human HCT-116 cells assessed as accumulation of cells at G2/M phase at 5 uM incubated for 24 hrs in presence of IR-4 Gy by PI staining based flow cytometric analysis (reference value: 29.00 %); assay type: functional
[13] = test system: HCT-116; assay: Induction of cell cycle arrest in human HCT-116 cells assessed as accumulation of cells at G2/M phase at 5 uM incubated for 24 hrs by PI staining based flow cytometric analysis (reference value: 23.42 %); assay type: functional
[14] = test system: HCT-116; assay: Induction of apoptosis in human HCT-116 cells assessed as late apoptotic cells at 5 uM incubated for 24 hrs in presence of IR-4 Gy by AnnexinV-FITC/PI staining based flow cytometry (reference value: 0.93%); assay type: functional
[15] = test system: HCT-116; assay: Induction of ROS generation in human HCT-116 cells at 5 to 10 uM in presence of IR 4 Gy by DCFH-DA staining based ELISA; assay type: functional, cell-based; settings: dose 5-10 µM
[16] = test system: HCT-116; assay: Induction of ROS generation in human HCT-116 cells assessed as fold increase in ROS level at 5 uM in presence of IR 4 Gy by DCFH-DA staining based ELISA; assay type: functional
[17] = test system: HCT-116; assay: Induction of apoptosis in human HCT-116 cells assessed as viable cells at 5 uM incubated for 24 hrs in presence of IR-4 Gy by AnnexinV-FITC/PI staining based flow cytometry (reference value: 94.08%); assay type: functional; settings: read-out: Activity
[18] = test system: HCT-116; assay: Radiosensitization activity in human HCT-116 cells assessed as combination index at 0.1 to 0.5 uM incubated for 24 hrs in presence of IR-2 Gy by crystal violet staining based colony formation assay; assay type: functional; settings: dose 0.1-0.5 µM
[19] = test system: HCT-116; assay: Induction of cell cycle arrest in human HCT-116 cells assessed as accumulation of cells at S phase at 5 uM incubated for 24 hrs by PI staining based flow cytometric analysis (reference value: 17.14%); assay type: functional
[20] = test system: HCT-116; assay: Induction of cell cycle arrest in human HCT-116 cells assessed as accumulation of cells at G0/G1 phase at 5 uM incubated for 24 hrs in presence of IR-4 Gy by PI staining based flow cytometric analysis (reference value: 56.89%); assay type: functional
[21] = test system: HCT-116; assay: Induction of apoptosis in human HCT-116 cells assessed as viable cells at 5 uM incubated for 24 hrs by AnnexinV-FITC/PI staining based flow cytometry (reference value: 98.05%); assay type: functional; settings: read-out: Activity
[22] = test system: HCT-116; assay: Radiosensitization activity in human HCT-116 cells incubated for 24 hrs in presence of IR-2 Gy by crystal violet staining based colony formation assay; assay type: functional, cell-based; settings: dose 0.1-0.5 µM
[23] = test system: HCT-116; assay: Radiosensitization activity in human HCT-116 cells assessed as combination index at 0.25 uM incubated for 24 hrs in presence of IR-5 Gy by crystal violet staining based colony formation assay; assay type: functional
[24] = test system: HCT-116; assay: Induction of cell cycle arrest in human HCT-116 cells assessed as accumulation of cells at G0/G1 phase at 5 uM incubated for 24 hrs by PI staining based flow cytometric analysis (reference value: 58.75%); assay type: functional
[25] = test system: HCT-116; assay: Induction of ROS generation in human HCT-116 cells assessed as fold increase in ROS level at 10 uM in presence of IR 4 Gy by DCFH-DA staining based ELISA; assay type: functional
[26] = test system: HCT-116; assay: Induction of DNA damage in human HCT-116 cells assessed as increase in gamma-H2AX fluorescence intensity at 10 uM incubated for 6 hrs in presence of IR 4 Gy by DAPI staining based immunofluorescence microscopic analysis; assay type: functional, cell-based
[27] = test system: HCT-116; assay: Induction of apoptosis in human HCT-116 cells assessed as late apoptotic cells at 5 uM incubated for 24 hrs by AnnexinV-FITC/PI staining based flow cytometry (reference value: 0.41%); assay type: functional
[28] = test system: HCT-116; assay: Induction of apoptosis in human HCT-116 cells assessed as early apoptotic cells at 5 uM incubated for 24 hrs in presence of IR-4 Gy by AnnexinV-FITC/PI staining based flow cytometry (reference value: 4.88%); assay type: functional
[29] = test system: HCT-116; assay: Radiosensitizing activity in human HCT-116 cells assessed as cell killing at 0.5 uM co-treated with IR-2 Gy incubated for 72 hrs by CCK-8 assay (reference value: 37%); assay type: functional
[30] = test system: HCT-116; assay: Cytotoxicity against human HCT-116 cells at 0.5 uM incubated for 72 hrs by CCK-8 assay; assay type: functional, cell-based

SMILES: COc1cc2c(=O)n(CCN3CCN(C)CC3)c3c4c(ccc3c2cc1OC)OCO4
- GI50 [1]: 9.95 µM
- inhibition [2]: inactive

SMILES: COc1cc2c(NCCN(C)C)nc3c4c(ccc3c2cc1OC)OCO4
- GI50 [1]: 0.47 µM
- inhibition [2]: inactive
- Activity [3]: ~100%

SMILES: COc1cc2c(Nc3ccc(C(=O)N4CCOCC4)cc3)nc3c4c(ccc3c2cc1OC)OCO4
- GI50 [1]: 5.26 µM
- inhibition [2]: inactive

SMILES: COc1cc2c(OCCN(C)C)nc3c4c(ccc3c2cc1OC)OCO4
- GI50 [1]: 0.32 µM
- inhibition [2]: inactive
- Activity [3]: ~100%

SMILES: COc1cc2c(=O)n(Cc3ccc(C(=O)O)cc3)c3c4c(ccc3c2cc1OC)OCO4
- GI50 [1]: > 100 µM
- inhibition [2]: inactive

SMILES: COc1cc2c(=O)n(CCn3cccn3)c3c4c(ccc3c2cc1OC)OCO4
- GI50 [1]: > 100 µM
- inhibition [2]: inactive

SMILES: COc1cc2c(NCCN3CCCC3)nc3c4c(ccc3c2cc1OC)OCO4
- viability at 0.5 µM [4]: ~80%
- GI50 [1]: 2.11 µM
- inhibition [2]: inactive
- Activity [5]: Active

SMILES: COc1cc2c(=O)n(CCN3CCOCC3)c3c4c(ccc3c2cc1OC)OCO4
- GI50 [1]: 3.22 µM
- inhibition [2]: inactive

SMILES: COc1cc2c(OCCN3CCN(C)CC3)nc3c4c(ccc3c2cc1OC)OCO4
- GI50 [1]: 7.88 µM
- inhibition [2]: inactive

SMILES: COc1ccc(Cn2c(=O)c3cc(OC)c(OC)cc3c3ccc4c(c32)OCO4)cc1
- GI50 [1]: > 100 µM
- inhibition [2]: inactive

SMILES: COc1cc2c(Nc3ccc(C(=O)N(C)C)cc3)nc3c4c(ccc3c2cc1OC)OCO4
- GI50 [1]: 7.79 µM
- inhibition [2]: inactive

SMILES: COc1cc2c(=O)n(CCc3cccs3)c3c4c(ccc3c2cc1OC)OCO4
- GI50 [1]: 44.8 µM
- inhibition [2]: inactive

SMILES: COc1cc2c(N3CCN(c4ncccn4)CC3)nc3c4c(ccc3c2cc1OC)OCO4
- Activity [6]: Active
- viability at 0.5 µM [4]: 64%
- Activity [7]: 1.75%
- Activity [8]: ~99%
- Activity [9]: inactive
- Activity [10]: 22.09%
- inhibition at 0.25 µM [11]: 30%
- Activity [12]: 43.16%
- GI50 [1]: 6.08 µM
- inhibition [2]: inactive
- Activity [13]: 37.67%
- Activity [14]: 3.11%
- Activity [15]: Active
- fold change (FC) [16]: 1.4
- viability at 5 µM [17]: 89.4%
- CI [18]: 0.4
- Activity [19]: 23.9%
- Activity [20]: 23.41%
- viability at 5 µM [21]: 95.2%
- Activity [22]: Dose-dependent-effect
- Activity [5]: <20%
- CI [23]: 0.29
- Activity [24]: 36.95%
- fold change (FC) [25]: 1.8
- Activity [26]: Active
- Activity [27]: 2.1%
- Activity [28]: 7.21%

SMILES: COc1cc2c(=O)n(Cc3ccc(OC(F)(F)F)cc3)c3c4c(ccc3c2cc1OC)OCO4
- GI50 [1]: 4.79 µM
- inhibition [2]: inactive

SMILES: COc1cc2c(=O)n(CCN3CCCC3)c3c4c(ccc3c2cc1OC)OCO4
- GI50 [1]: 0.56 µM
- inhibition [2]: inactive
- Activity [3]: ~100%

SMILES: COc1cc2c(NCCN3CCN(C)CC3)nc3c4c(ccc3c2cc1OC)OCO4
- GI50 [1]: 0.85 µM
- inhibition [2]: inactive

SMILES: COc1cc2c(=O)n(CCNC(=O)OC(C)(C)C)c3c4c(ccc3c2cc1OC)OCO4
- GI50 [1]: > 100 µM
- inhibition [2]: inactive

SMILES: COc1cc2c(Nc3ccc(C(=O)N4CCN(C)CC4)cc3)nc3c4c(ccc3c2cc1OC)OCO4
- GI50 [1]: 3.32 µM
- inhibition [2]: inactive

SMILES: COc1cc2c(Nc3ccc(C(=O)N4CCC(OC)CC4)cc3)nc3c4c(ccc3c2cc1OC)OCO4
- GI50 [1]: 2.76 µM
- inhibition [2]: inactive

SMILES: COc1cc2c(Nc3ccc(C(=O)N4CCCC4)cc3)nc3c4c(ccc3c2cc1OC)OCO4
- GI50 [1]: 1.46 µM
- inhibition [2]: inactive

SMILES: COc1cc2c(=O)n(CC(=O)N3CCOCC3)c3c4c(ccc3c2cc1OC)OCO4
- GI50 [1]: 54.2 µM
- inhibition [2]: inactive

SMILES: COc1cc2c(OCCN3CCCC3)nc3c4c(ccc3c2cc1OC)OCO4
- GI50 [1]: 0.31 µM
- inhibition [2]: inactive
- Activity [3]: ~100%

SMILES: COc1cc2c(=O)n(CCN(C)C)c3c4c(ccc3c2cc1OC)OCO4
- GI50 [1]: 0.55 µM
- inhibition [2]: inactive
- Activity [3]: ~100%

SMILES: COc1cc2c(=O)n(CCn3cccc3)c3c4c(ccc3c2cc1OC)OCO4
- GI50 [1]: 17.3 µM
- inhibition [2]: inactive

SMILES: COc1cc2c(=O)n(CCN3CCCCC3)c3c4c(ccc3c2cc1OC)OCO4
- GI50 [1]: 0.81 µM
- inhibition [2]: inactive
- Activity [29]: 55%
- Activity [30]: inactive
